Data published in patent US4521428A, “Anorexigenic trifluoromethylphenyltetrahydropyridines and pharmaceutical compositions containing them” (Sanofi, priority 1982, dated 1985).
Where two headings read alike, the source gives them in different places.

Columns and labels:
cerebral serotonin [1] = assay: cerebral rates of serotonin compared to controls, according to Curzon and Green; type: in vivo; conditions: for cerebral rates of serotonin, % compared to controls: two hours after administration
Text: Table II hereinbelow summarizes the percent cerebral rates of serotonin, compared to the controls, after intraperitoneal or oral administration of four representative compounds of the present invention. The determination of the cerebral rates, according to Curzon and Green (Br. J. Pharmacol. 1970, 39, 653) was made two hours after the administration. Fenfluramine was used as reference compound.

[2] = system: food intake (female rats); assay: anorectic activity by the food intake method in the rat; type: in vivo; conditions: food taken in first hour, read-out: ID50 (dose inhibiting by 50% the food intake)
Description: The anorectic activity was assessed by the food intake method in the rat. Female rats weighing 200 g are used, which were trained for 10 days to eat during a period of 4 hours and selected on the eighth day. At the end of the tenth day, the randomised animals were divided into a "control group" treated with the vehicle alone, and into several "treated groups". The treatment was effected by intraperitoneal or by oral route 30 minutes or 1 hour, respectively, before the presentation of the food and the amount of food taken in the course of the first hour was then measured.
the anorectic activity, expressed as oral or intraperitoneal dose inhibiting by 50% the food intake (ID50, B);

[3] = acute toxicity in the rat (LD50) by the oral or intraperitoneal route; conditions: in vivo; for selectivity ratio: read-out: A/B (LD50/ID50, therapeutic index)
Text: the acute toxicity, expressed as LD50 in the rat by the oral or intraperitoneal route (A);
the ratio between the acute toxicity and the anorectic activity which expresses the therapeutic index related to the acute toxicity (A/B).

cerebral serotonin [4] = conditions: doses very close to the anorectic dose; Arch. Intern. Pharmacodyn. Ther. 1967; cited from earlier work
central nervous system = conditions: in vivo; cited from earlier work
serotonin release = conditions: central neurons; cited from earlier work
cerebral noradrenaline = conditions: cited from earlier work
[5] = ip, 1 h, i.p., 30 minutes before food

Row | SMILES | ED50 ([2]; po, os, 1 hour before food) [mg/kg] | selectivity ratio ([3]; os) | LD50 ([3]; po, os) [mg/kg] | other results
1 | Cl.FC(F)(F)c1cccc(C2=CCN(CCc3ccccn3)CC2)c1 [Example 1, 1-[2-(2-pyridyl)ethyl]-4-(3-trifluoromethylphenyl)-1,2,3,6-tetrahydropyridine hydrochloride] | 3.49 | 56 | 195 | cerebral rates of serotonin, % compared to controls (cerebral serotonin [1]; i.p., 1.625 mg/kg): 93 ± 7%; cerebral rates of serotonin, % compared to controls (cerebral serotonin [1]; i.p., 3.25 mg/kg): 85 ± 1%; cerebral rates of serotonin, % compared to controls (cerebral serotonin [1]; i.p., 7.5 mg/kg, °° P < 0.01): 98 ± 10%; ED50 [2, 5]: 1.99 mg/kg; LD50 ([3]; ip): 108 mg/kg; selectivity ratio ([3]; ip): 54.2
2 | Cl.FC(F)(F)c1cccc(C2=CCN(CCc3cccnc3)CC2)c1 [Example 2, 1-[2-(3-pyridyl)ethyl]-4-(3-trifluoromethylphenyl)-1,2,3,6-tetrahydropyridine hydrochloride] | 1.77 | 128 | 227 | cerebral rates of serotonin, % compared to controls (cerebral serotonin [1]; os, 2.0 mg/kg): 113 ± 5%
3 | Cl.FC(F)(F)c1cccc(C2=CCN(CCc3ccncc3)CC2)c1 [Example 3, 1-[2-(4-pyridyl)ethyl]-4-(3-trifluoromethylphenyl)-1,2,3,6-tetrahydropyridine hydrochloride] | 5.82 | 49.6 | 289 | –
4 | Cc1cccc(CCN2CC=C(c3cccc(C(F)(F)F)c3)CC2)n1.Cl [Example 4, 1-[2-(6-methyl-2-pyridyl)ethyl]-4-(3-trifluoromethylphenyl)-1,2,3,6-tetrahydropyridine hydrochloride] | 5.69 | 35.6 | 202 | cerebral rates of serotonin, % compared to controls (cerebral serotonin [1]; os, 5.69 mg/kg): 119 ± 6%
5 | Cl.[O-][n+]1ccc(CCN2CC=C(c3cccc(C(F)(F)F)c3)CC2)cc1 [Example 5, 4-[2-[4-(3-trifluoromethylphenyl)-1,2,3,6-tetrahydropyrid-1-yl]ethyl]pyridine 1-oxide hydrochloride] | 1.71 | ~176 | ~300 | –
6 | Cl.FC(F)(F)c1cccc(C2=CCN(CCc3cccc4ccccc34)CC2)c1 [Example 6, 1-[2-(1-naphthyl)ethyl]-4-(3-trifluoromethylphenyl)-1,2,3,6-tetrahydropyridine hydrochloride] | 4.75 | > 126 | > 600 | –
7 | Cl.FC(F)(F)c1cccc(C2=CCN(CCc3ccc4ccccc4c3)CC2)c1 [Example 7, 1-[2-(2-naphthyl)ethyl]-4-(3-trifluoromethylphenyl)-1,2,3,6-tetrahydropyridine hydrochloride] | 10.4 | > 76.6 | > 800 | –
8 | CCNC(C)Cc1cccc(C(F)(F)F)c1 (stereo not drawn) [Fenfluramine, reference compound] | 2.51 | – | 231 | cerebral serotonin depletion/reduction (cerebral serotonin [1]; in vivo): significant reduction of the cerebral serotonin; cerebral rates of serotonin (background) (cerebral serotonin [4]): significant reduction in the cerebral rates of serotonin; ED50 [2, 5]: 1.58 mg/kg; anorectic activity (background) (central nervous system): excellent anorectic activity; sedative/stimulant action (background) (central nervous system): some sedative action; LD50 ([3]; ip): 102 mg/kg; serotonin release (background) (serotonin release): release of the endogenous serotonin of the central neurons
9 | CC(N)Cc1ccccc1 (stereo not drawn) [amphetamine] | – | – | – | noradrenaline release mediating anorexia (background) (cerebral noradrenaline): seems to be mediated by the release of cerebral noradrenaline
